The results in this text go back to patent EP4241843B1, “ALCOHOL DERIVATIVES AS KV7 POTASSIUM CHANNEL OPENERS” (H. Lundbeck A/S, priority 2018, dated 2019).

pEC50: −log10 of the molar value.

For one assay, the target named is T1, HEK-hKv7.2/hKv7.3 cells (Homo sapiens, UniProt O43525+O43526).
T1 construct: P2A self-cleaving peptide between the two subunits (remnant after ribosomal skipping); expressed in transfected cells
The assay can be described thus: Thallium influx assay for potassium channel activation. The format is cell-based. Particulars: AUC as readout, normalized to a reference compound. How it is done: (§1) A synthesized cDNA fragment encoding human Kv7.3 and human Kv7.2 separated by a P2A sequence was inserted into the pcDNA5/FRT/TO vector using the BamHI and XhoI restriction sites. The construct was then transfected into HEK Flp-In 293 cells using Lipofectamine2000. The transfected cells were grown for 48 hours in DMEM containing 10% (v/v) FBS and 1% PenStrep and subsequently maintained under selection in DMEM containing 10% (v/v) FBS, 1 % PenStrep and 200 ug/mL Hygromycin B at 37°C in a humidified atmosphere of 5% CO2.
The thallium influx assay for potassium channel activation was performed analogously to a published procedure (C.D. Weaver, et al., J Biomol Screen 2004, 9, 671-677) using the FLIPR Potassium Assay kit (Molecular Devices). HEK-hKv7.2/hKv7.3 cells were plated onto 96-well, black-walled, clear-bottomed culture plates (Corning, Acton, MA, USA) at a density of 80,000 cells/well (100 µl/well) if the cells were assayed the following day, or 40,000 cells/well (100 µl/well) if the cells were assayed two days after seeding.
On the assay day, the medium was removed after which 50 uL/well of test compound diluted to 2x final concentration in HBSS containing 20 mM HEPES, and 50 uL/well of 2x dye load buffer were added. The cells were then incubated for 60 min at room temperature in the dark. Chloride-free stimulation buffer containing Tl^+ and K^+ at 5x final concentration (5x concentration: 5 mM in both cases) and test compound at 1x final concentration, were prepared during the incubation. The cells were then assayed in a FDSS7000EX Functional Drug Screening System (Hamamatsu). Following 60 sec of baseline fluorescence signal reading at 0.1 Hz, and 10 sec at 1 Hz, 25 uL/well of stimulation buffer were added and the fluorescence continuously measured for 50 sec at 1 Hz followed, by 4 min at 0.1 Hz. Compound effect was quantified using AUC as readout and normalized to a reference compound, which was included on each plate.

The target in assay [1] is T2, hKv7.2/hKv7.3 cell line (HEK-hKv7.2/hKv7.3) (Homo sapiens, UniProt O43525+O43526).
T2 construct: P2A self-cleaving peptide between the two subunits (remnant after ribosomal skipping); expressed in transfected cells
T2 sequence (O43525 whole entry): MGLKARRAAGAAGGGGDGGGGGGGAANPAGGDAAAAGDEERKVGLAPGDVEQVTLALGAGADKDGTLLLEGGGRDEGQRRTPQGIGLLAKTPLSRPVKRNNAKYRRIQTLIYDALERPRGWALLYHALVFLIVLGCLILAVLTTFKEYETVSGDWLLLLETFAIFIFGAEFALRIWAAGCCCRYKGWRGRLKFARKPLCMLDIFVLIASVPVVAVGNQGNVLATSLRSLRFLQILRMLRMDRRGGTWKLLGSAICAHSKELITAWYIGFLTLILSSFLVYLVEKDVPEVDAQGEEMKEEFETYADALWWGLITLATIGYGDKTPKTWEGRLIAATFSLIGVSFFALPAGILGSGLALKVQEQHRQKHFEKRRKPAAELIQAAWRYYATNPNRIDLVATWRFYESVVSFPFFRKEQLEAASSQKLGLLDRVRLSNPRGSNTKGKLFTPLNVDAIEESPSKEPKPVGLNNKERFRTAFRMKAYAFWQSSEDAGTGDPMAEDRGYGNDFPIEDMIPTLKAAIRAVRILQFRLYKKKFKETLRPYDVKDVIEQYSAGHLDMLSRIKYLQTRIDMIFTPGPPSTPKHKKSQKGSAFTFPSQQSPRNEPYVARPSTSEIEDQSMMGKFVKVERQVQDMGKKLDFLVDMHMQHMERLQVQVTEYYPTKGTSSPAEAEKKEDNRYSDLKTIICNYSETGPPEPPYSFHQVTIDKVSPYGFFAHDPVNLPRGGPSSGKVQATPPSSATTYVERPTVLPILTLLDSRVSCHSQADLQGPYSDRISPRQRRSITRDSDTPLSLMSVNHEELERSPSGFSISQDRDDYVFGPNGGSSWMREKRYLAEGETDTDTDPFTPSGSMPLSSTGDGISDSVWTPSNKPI
T2 sequence (O43526 whole entry): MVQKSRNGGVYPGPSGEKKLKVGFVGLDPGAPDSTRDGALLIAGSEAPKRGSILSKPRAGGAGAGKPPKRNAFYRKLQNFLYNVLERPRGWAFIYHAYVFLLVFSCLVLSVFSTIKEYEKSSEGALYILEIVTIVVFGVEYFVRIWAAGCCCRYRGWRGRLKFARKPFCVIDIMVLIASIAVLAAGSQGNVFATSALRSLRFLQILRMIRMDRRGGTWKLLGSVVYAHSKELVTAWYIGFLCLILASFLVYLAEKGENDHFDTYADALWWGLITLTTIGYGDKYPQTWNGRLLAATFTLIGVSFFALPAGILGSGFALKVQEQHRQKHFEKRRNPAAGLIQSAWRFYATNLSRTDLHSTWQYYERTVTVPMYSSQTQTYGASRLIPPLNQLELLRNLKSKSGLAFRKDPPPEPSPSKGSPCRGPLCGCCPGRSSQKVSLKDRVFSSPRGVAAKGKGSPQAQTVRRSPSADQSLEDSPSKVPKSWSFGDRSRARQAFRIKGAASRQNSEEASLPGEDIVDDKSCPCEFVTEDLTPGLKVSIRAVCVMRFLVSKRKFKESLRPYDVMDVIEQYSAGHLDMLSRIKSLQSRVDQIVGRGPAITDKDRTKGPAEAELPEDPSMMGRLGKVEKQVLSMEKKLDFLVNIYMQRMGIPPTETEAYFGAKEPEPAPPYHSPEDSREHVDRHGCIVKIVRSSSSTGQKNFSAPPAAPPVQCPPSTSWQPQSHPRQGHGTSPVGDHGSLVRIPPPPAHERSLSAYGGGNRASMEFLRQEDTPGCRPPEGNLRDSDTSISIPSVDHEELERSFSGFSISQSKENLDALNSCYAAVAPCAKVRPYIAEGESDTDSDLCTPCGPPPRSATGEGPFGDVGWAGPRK
The assay can be described thus: Automated whole cell patch-clamp functional test of the stable cell line. The format is cell-based. Particulars: stable HEK-hKv7.2/hKv7.3 cell line. The procedure:
as §1
A general note: In patch-clamp work, channel activity is measured electrically.

T1 sequence (O43525 whole entry): as the sequence (O43525 whole entry) above
T1 sequence (O43526 whole entry): as the sequence (O43526 whole entry) above

A word on the pEC50: it is −log10 of the EC50, conventionally taken in molar units. Read a low pEC50 as a large EC50. Turning to `C[C@H](NC(=O)CC(O)C1CC(F)(F)C1)c1cccc(OC(F)(F)F)c1` (stereo in doubt) [Example 11a, 3-(3,3-Difluorocyclobutyl)-3-hydroxy-N-((S)-1-(3-(trifluoromethoxy)phenyl)ethyl)propanamide], the pEC50 at HEK-hKv7.2/hKv7.3 cells was 5.82.

As to `C[C@H](NC(=O)C[C@H](O)C(C)(C)C)c1cccc(OC(F)(F)F)c1` [Example 1a, (S)-3-Hydroxy-4,4-dimethyl-N-((S)-1-(3-(trifluoromethoxy)phenyl)ethyl)pentanamide], on HEK-hKv7.2/hKv7.3 cells, the pEC50 was 6.17.

Compound `C[C@H](NC(=O)C[C@@H](O)C(C)(C)C)c1cccc(OC(F)(F)F)c1` [Example 1b, (R)-3-Hydroxy-4,4-dimethyl-N-[(1S)-1-[3-(trifluoromethoxy)phenyl]ethyl]pentanamide] gave a pEC50 on HEK-hKv7.2/hKv7.3 cells of 5.48.

With `C[C@H](NC(=O)CC1(O)CC(F)(F)C1)c1cccc(OC(F)(F)F)c1` [Example 5, (S)-2-(3,3-difluoro-1-hydroxycyclobutyl)-N-(1-(3-(trifluoromethoxy)phenyl)ethyl)acetamide], the pEC50 on HEK-hKv7.2/hKv7.3 cells was 5.74.

With `C[C@H](NC(=O)CC1(O)CCC1)c1cccc(OCC(F)(F)F)c1` [Example 6, (S)-2-(1-Hydroxycyclobutyl)-N-(1-(3-(2,2,2-trifluoroethoxy)phenyl)ethyl) acetamide], the pEC50 on HEK-hKv7.2/hKv7.3 cells is 5.52.

`C[C@H](NC(=O)CC(O)(C(F)(F)F)C(F)(F)F)c1cccc(OC(F)(F)F)c1` [Example 9, 4,4,4-Trifluoro-3-hydroxy-N-[(1S)-1-[3-(trifluoro-methoxy)phenyl]ethyl]-3-(trifluoromethyl)butanamide] had a pEC50 at HEK-hKv7.2/hKv7.3 cells of 6.25.

At HEK-hKv7.2/hKv7.3 cells, `COC[C@H](NC(=O)CC1(O)CCCC1)c1cccc(OC(F)(F)F)c1` [Example 17, (R)-2-(1-Hydroxycyclopentyl)-N-(2-methoxy-1-(3-(trifluoromethoxy)phenyl)ethyl) acetamide] showed a pEC50 of 5.60.

Take `CCOC(=O)Nc1ccc(NCc2ccc(F)cc2)cc1N` [Retigabine, N-(2-amino-4-(4-fluorobenzylamino)-phenyl) carbamic acid ethyl ester]: in assay [1], the “effect on Kv7-current” value was “potentiated”.

Consider `O=C1c2ccccc2C(Cc2ccncc2)(Cc2ccncc2)c2ccccc21` [XE991], for which, in assay [1], the “effect on Kv7-current” value was “sensitive”.
